According to PMC9124820, “In vitro evaluation of fenfluramine and norfenfluramine as victims of drug interactions” (Pharmacology Research & Perspectives, 2022):
Where a name gives a salt, the structure may show the parent alone.

Columns and labels:
[1] = Metabolic stability and metabolite identity, rat intestinal S9 fractions; assay type: in vitro ADME; conditions: FFA incubation, LC-MS/MS; X = identified
Description: LC‐MS/MS analyses to assess metabolic stability and identify the transporter substrate were performed using an API 4000 QTRAP mass spectrometer (SCIEX, Framingham, MA) with electrospray ionization in positive mode. Chromatography was performed using an Atlantis dC18 analytical column (100 × 2.1 mm, 5 µm; Waters Corporation, Milford, MA). Mobile phases were 0.2% v/v formic acid in water and 0.2% v/v formic acid in acetonitrile. For metabolic stability experiments, FFA and metabolites were eluted at a flow rate of 0.6 mL/min, with a linear gradient of 20%−80% acetonitrile from 0.30−2.0 min. For transporter substrate experiments, the gradient was slightly modified to achieve suitable chromatography. The mass transitions monitored were 232.0 > 159.0 for FFA and 348.0 > 330.0 for 1ʹ‐OH‐midazolam‐d4 internal standard. […]
FFA (1 or 10 µM) was incubated with liver and intestinal S9 fractions (2 mg protein/mL) at 37 ± 1°C in 0.2‐mL incubation mixtures containing potassium phosphate buffer (50 mM, pH 7.4), magnesium chloride (MgCl2) (3 mM), and EDTA (1 mM, pH 7.4), in the presence or absence of a three‐component cofactor mixture (NADPH‐generating system, uridine diphosphate glucuronic acid (UDPGA) [8 mM], and 3’‐phosphoadenosine 5’‐phosphosulfate [0.5 mM]). […] Supernatant fractions were analyzed by LC‐MS/MS.
To characterize substrate loss and metabolic stability, duplicate samples were analyzed by LC‐MS/MS to determine the change in substrate concentration over the incubation period. The rate constant of elimination (kel, min^−1) was determined from the time course of substrate loss based on single exponential decay (A(t)=A0(‐kelt)) . Half‐life in vitro was determined by the following equation: t1/2 = 0.693/kel. The in vitro intrinsic clearance (CLint) was calculated from the rate constant of elimination as follows: CLintμL/min/mgprotein=kelmin^‐1×incubationvolume(μL)/mgproteinperincubation.
Percent loss of substrate was determined by normalizing the mean analyte peak‐area ratio at each time point to the average of four replicates at the 0‐min time point (100%).

CYP2C19 = CYP2C19 (Homo sapiens, UniProt P33261); test: in vitro; conditions: microsomes
Description: (§1) To determine the metabolic role of individual CYP450 enzymes more quantitatively, FFA (1 μM) or nFFA (0.1 μM) was manually incubated in duplicate with human liver microsomes (1 mg protein/mL) for 60 min (FFA), or for 0 and 120 min (nFFA), in the presence of direct‐acting or metabolism‐dependent chemical inhibitors. […] Solvent controls were processed in parallel with each inhibitor. Under the conditions described above, incubations were conducted and reactions terminated at 0 or 120 min. Metabolite formation for chemical inhibitors was normalized over time to metabolite formation in the respective solvent controls for each inhibitor. Assays were conducted in duplicate due to the low biological and technical variability expected in this assay; statistical analysis was not possible with duplicate samples.

CYP1A2 = molecular target: T1, CYP1A2 (Homo sapiens, UniProt P05177); test: Chemical inhibition of FFA metabolism in human liver microsomes, CYP1A2; assay type: in vitro ADME; conditions: probe FFA (1 µM), demethylation to nFFA, inhibitor 10 µM, metabolism-dependent, read-out: Reduction in FFA demethylation (percent inhibition by a selective inhibitor)
T1 construct: manually incubated in duplicate with human liver microsomes (1 mg protein/mL); tissue Sekisui XenoTech, LLC; host or cells: pooled human liver microsomes (200 donors)
T1 sequence (P05177 1-516): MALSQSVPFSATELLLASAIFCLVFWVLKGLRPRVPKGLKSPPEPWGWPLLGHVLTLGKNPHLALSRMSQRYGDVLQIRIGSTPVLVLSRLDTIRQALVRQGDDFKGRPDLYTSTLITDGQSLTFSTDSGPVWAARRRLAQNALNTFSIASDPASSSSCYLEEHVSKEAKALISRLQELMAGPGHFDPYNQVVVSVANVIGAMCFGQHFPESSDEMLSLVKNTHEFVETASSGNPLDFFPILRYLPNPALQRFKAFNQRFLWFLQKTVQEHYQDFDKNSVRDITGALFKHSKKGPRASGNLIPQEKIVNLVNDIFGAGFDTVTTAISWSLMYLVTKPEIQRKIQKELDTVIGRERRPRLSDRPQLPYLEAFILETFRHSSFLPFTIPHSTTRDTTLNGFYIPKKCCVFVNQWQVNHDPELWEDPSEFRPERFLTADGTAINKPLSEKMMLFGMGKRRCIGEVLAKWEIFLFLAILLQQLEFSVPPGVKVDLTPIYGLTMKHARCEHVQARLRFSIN
Description: as §1

CYP3A4/5 = conditions: inhibitor 0.1, 0.5, 1 µM, direct-acting; FFA 1 μM, human liver microsomes
Description: as §1

CYP2B6 = molecular target: T2, CYP2B6 (Homo sapiens, UniProt P20813); test: Chemical inhibition of FFA metabolism in human liver microsomes, CYP2B6; assay type: in vitro ADME; conditions: probe FFA (1 µM), demethylation to nFFA, inhibitor 30 µM, metabolism-dependent, read-out: Reduction in FFA demethylation (percent inhibition by a selective inhibitor)
T2 construct: manually incubated in duplicate with human liver microsomes (1 mg protein/mL); tissue Sekisui XenoTech, LLC; host or cells: pooled human liver microsomes (200 donors)
T2 sequence (P20813 1-491): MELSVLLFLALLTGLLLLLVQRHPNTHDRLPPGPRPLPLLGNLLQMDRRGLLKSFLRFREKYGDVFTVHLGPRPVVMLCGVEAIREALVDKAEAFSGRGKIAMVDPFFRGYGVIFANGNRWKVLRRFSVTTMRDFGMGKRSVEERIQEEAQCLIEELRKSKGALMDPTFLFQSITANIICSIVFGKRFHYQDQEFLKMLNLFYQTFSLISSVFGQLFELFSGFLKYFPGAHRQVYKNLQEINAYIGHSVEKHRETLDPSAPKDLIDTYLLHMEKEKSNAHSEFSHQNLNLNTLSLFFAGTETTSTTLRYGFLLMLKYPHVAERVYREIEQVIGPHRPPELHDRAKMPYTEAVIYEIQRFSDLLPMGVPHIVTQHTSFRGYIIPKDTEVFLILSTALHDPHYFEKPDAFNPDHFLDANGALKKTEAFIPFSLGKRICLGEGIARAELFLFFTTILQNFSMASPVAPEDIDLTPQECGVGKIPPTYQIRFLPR
Description: as §1

CYP2D6 = CYP2D6 (Homo sapiens, UniProt P10635); test: in vitro; conditions: microsomes
Description: as §1

CYP2C9 = molecular target: T3, CYP2C9 (Homo sapiens, UniProt P11712); test: Chemical inhibition of FFA metabolism in human liver microsomes, CYP2C9; assay type: in vitro ADME; conditions: inhibitor 20 µM, metabolism-dependent
T3 construct: manually incubated in duplicate with human liver microsomes (1 mg protein/mL); tissue Sekisui XenoTech, LLC; host or cells: pooled human liver microsomes (200 donors)
Description: as §1

BCRP = molecular target: T4, BCRP (Homo sapiens, UniProt Q9UNQ0); conditions: cited from earlier work
T4 sequence (Q9UNQ0 1-655): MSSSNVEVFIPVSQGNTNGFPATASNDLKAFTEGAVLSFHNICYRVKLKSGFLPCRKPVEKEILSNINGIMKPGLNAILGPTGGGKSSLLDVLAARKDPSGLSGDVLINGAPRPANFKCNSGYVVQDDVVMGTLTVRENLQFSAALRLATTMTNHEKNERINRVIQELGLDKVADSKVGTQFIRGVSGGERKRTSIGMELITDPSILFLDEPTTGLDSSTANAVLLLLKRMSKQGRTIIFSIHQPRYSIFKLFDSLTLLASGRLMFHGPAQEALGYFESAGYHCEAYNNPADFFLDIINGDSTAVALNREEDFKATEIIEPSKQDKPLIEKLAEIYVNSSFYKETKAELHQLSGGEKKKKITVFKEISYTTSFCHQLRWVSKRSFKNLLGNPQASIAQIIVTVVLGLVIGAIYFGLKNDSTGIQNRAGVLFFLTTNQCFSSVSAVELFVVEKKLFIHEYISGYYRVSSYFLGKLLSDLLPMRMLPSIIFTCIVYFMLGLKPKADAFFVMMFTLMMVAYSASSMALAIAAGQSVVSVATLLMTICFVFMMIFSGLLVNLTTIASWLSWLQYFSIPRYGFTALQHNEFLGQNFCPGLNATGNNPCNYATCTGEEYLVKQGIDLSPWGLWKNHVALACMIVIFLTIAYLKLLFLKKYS

P‐gp = P‐gp (Homo sapiens, UniProt P08183); conditions: cited from earlier work
Sequence of P‐gp (P08183 whole entry): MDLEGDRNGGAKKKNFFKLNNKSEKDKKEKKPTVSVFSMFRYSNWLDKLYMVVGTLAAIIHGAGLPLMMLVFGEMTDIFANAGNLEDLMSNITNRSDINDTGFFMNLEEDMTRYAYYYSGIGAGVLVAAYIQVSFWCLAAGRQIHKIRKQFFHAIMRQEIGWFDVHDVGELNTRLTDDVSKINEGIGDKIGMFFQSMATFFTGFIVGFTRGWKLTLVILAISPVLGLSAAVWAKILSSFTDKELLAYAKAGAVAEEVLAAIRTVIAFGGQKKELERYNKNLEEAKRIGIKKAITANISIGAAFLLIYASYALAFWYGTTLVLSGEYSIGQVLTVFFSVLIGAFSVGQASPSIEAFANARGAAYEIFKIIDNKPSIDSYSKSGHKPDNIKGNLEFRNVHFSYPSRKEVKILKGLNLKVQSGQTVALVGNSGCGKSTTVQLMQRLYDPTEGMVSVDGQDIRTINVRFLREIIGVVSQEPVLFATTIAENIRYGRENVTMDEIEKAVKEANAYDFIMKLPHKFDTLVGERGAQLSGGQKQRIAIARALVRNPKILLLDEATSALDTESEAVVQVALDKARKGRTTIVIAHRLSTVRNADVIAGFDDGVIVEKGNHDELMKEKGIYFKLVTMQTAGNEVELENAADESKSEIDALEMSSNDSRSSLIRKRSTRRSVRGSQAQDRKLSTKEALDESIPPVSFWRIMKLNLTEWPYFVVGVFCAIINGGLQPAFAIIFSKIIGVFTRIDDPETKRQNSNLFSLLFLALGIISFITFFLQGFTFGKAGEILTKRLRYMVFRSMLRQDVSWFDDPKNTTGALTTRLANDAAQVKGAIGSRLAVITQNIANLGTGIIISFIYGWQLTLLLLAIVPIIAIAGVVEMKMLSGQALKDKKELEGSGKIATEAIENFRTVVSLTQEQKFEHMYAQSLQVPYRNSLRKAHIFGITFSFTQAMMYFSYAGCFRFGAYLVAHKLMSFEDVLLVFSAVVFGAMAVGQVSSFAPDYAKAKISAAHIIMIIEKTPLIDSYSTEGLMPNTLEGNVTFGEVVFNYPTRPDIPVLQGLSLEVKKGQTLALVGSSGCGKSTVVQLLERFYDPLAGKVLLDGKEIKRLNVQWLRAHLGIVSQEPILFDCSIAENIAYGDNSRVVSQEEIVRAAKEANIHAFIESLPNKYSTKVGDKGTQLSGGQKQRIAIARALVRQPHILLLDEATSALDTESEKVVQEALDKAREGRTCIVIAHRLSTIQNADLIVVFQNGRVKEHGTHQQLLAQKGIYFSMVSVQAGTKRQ

T3 sequence (P11712 whole entry): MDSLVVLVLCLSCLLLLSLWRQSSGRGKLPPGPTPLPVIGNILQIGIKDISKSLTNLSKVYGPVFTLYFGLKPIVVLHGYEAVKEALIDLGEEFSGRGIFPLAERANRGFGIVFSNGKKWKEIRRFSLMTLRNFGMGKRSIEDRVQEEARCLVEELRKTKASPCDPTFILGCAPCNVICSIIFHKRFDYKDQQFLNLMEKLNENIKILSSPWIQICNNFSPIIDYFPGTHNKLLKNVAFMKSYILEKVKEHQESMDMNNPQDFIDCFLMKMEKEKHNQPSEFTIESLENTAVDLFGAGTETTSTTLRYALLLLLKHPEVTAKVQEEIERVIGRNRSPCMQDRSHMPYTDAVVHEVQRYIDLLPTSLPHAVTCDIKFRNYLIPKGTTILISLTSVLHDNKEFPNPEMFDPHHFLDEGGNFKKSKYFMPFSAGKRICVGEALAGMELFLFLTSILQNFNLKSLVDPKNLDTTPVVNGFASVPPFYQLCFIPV
Sequence of CYP2C19 (P33261 whole entry): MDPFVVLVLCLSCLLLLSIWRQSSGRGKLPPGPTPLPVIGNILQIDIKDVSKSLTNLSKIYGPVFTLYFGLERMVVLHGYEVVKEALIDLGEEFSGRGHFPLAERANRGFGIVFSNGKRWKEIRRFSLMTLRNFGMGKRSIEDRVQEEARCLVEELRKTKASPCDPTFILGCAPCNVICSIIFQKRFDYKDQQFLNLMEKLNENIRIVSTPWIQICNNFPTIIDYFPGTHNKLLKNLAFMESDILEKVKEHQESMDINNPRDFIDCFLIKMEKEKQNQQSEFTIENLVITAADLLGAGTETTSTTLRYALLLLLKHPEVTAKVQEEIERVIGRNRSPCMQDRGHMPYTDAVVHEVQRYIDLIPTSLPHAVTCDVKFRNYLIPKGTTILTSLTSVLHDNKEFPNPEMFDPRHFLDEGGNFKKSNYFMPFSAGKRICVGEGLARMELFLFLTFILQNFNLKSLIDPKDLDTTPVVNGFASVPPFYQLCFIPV
Sequence of CYP2D6 (P10635 whole entry): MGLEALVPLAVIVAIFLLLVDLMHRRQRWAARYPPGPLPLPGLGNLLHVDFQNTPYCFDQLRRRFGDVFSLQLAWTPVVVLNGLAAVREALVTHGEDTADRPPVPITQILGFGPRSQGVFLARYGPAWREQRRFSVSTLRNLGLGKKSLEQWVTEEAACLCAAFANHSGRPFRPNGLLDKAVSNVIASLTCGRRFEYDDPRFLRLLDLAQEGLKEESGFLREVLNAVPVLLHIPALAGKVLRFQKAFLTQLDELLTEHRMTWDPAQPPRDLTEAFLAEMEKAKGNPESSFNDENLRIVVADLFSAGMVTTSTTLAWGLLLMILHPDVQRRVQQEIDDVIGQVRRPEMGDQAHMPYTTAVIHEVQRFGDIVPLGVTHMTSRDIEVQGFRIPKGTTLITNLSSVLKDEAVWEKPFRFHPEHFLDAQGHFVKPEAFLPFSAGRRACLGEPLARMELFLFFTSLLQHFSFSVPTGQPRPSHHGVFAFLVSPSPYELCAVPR

Structure (SMILES)	substrate capacity for BCRP (BCRP)	substrate capacity for P‐gp (P‐gp)	further results
CC(Cc1cccc(C(F)(F)F)c1)NO (centres unmarked) [C2]			identified in Intestinal S9 fractions, Rat [1]: trace
COc1ccc2nc([S@@+]([O-])Cc3ncc(C)c(OC)c3C)[nH]c2c1 [Esomeprazole, esomeprazole]			Reduction in FFA demethylation (percent inhibition by a selective inhibitor) (CYP2C19; 60 min, 10 µM): 8%; inhibition at 60 min, 10 µM (CYP2C19; Reduction in FFA demethylation (percent inhibition by a selective inhibitor)): < 15%
Cc1nc2c([nH]1)c(=O)n(C)c(=O)n2Cc1ccco1 [Furafylline, furafylline]			inhibition at 60 min, 10 µM (CYP1A2): 32%
CC(=O)N1CCN(c2ccc(OCC3COC(Cn4ccnc4)(c4ccc(Cl)cc4Cl)O3)cc2)CC1 (centres unmarked) [Ketoconazole, ketoconazole]			Reduction in FFA demethylation (percent inhibition by a selective inhibitor) (CYP3A4/5): None
c1ccc(C2(N3CCCCC3)CCCCC2)cc1 [Phencyclidine, phencyclidine hydrochloride]			inhibition at 60 min, 30 µM (CYP2B6): 42%
C=C[C@H]1C[N@@]2CC[C@H]1C[C@@H]2[C@@H](O)c1ccnc2ccc(OC)cc12 [Quinidine, quinidine]			inhibition at 60 min, 1 µM (CYP2D6): 37%
O=C(O)COc1ccc(C(=O)c2cccs2)c(Cl)c1Cl [Tienilic acid]			inhibition at 60 min, 20 µM (CYP2C9; human, liver microsomes, probe FFA (1 µM), demethylation to nFFA, read-out: Reduction in FFA demethylation (percent inhibition by a selective inhibitor)): < 15%; Reduction in FFA demethylation (percent inhibition by a selective inhibitor) (CYP2C9; FFA 1 μM): 14%
NC(=O)N1c2ccccc2C=Cc2ccccc21 [carbamazepine]	did not show substrate capacity	did not show substrate capacity	
CC[C@@H](C(N)=O)N1CCCC1=O [levetiracetam]	did not show substrate capacity	did not show substrate capacity	
CCC1(c2ccccc2)C(=O)NC(=O)NC1=O [phenobarbital]	did not show substrate capacity		
O=C1NC(=O)C(c2ccccc2)(c2ccccc2)N1 [phenytoin]	did not show substrate capacity	did not show substrate capacity	
CC1(C)O[C@@H]2[C@@H](CO[C@@]3(COS(N)(=O)=O)OC(C)(C)O[C@@H]23)O1 [topiramate]	did not show substrate capacity	did not show substrate capacity	
CCCC(CCC)C(=O)O [valproate]	did not show substrate capacity	did not show substrate capacity	
